The test deals with bovine carbonic anhydrase (Bos taurus, UniProt P00921). Briefly: Inhibition of bovine carbonic anhydrase esterase activity (hydrolysis of p-nitrophenyl acetate, UV 348 nm). As to conditions: for % inhibition of the hydrolysis of nitrophenyl acetate (NPA) catalyzed by carbonic anhydrase: 25° C.; for inhibition with respect to carboanhydrase, in words: comparable with or even superior to that of acetazolamide.
Chain of bovine carbonic anhydrase (P00921 whole entry): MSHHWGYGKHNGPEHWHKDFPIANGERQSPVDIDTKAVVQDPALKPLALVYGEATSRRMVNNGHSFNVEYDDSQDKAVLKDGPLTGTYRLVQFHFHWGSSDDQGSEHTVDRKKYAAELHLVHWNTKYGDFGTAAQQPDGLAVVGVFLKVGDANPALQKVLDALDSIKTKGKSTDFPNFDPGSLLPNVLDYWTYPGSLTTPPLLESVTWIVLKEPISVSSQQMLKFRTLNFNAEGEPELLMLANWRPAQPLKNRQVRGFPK

With `O=S(=O)(NS(=O)(=O)C(F)(F)C(F)(F)C(F)(F)C(F)(F)C(F)(F)C(F)(F)C(F)(F)C(F)(F)F)C(F)(F)C(F)(F)C(F)(F)C(F)(F)C(F)(F)C(F)(F)F` [(C8F17SO2)NH(C6F13SO2)], the “% inhibition of the hydrolysis of nitrophenyl acetate (NPA) catalyzed by carbonic anhydrase” value (shortened to “% inhibition”) by setting is: (inhibitor 1.35 10^−4 mol/l) 87%; (inhibitor 1.35 10^−6 mol/l) 0%.
In the case of `O=S(=O)(NS(=O)(=O)C(F)(F)C(F)(F)C(F)(F)C(F)(F)C(F)(F)C(F)(F)C(F)(F)C(F)(F)F)C(F)(F)C(F)(F)C(F)(F)C(F)(F)F` [(C4F9SO2)NH(C8F17SO2)], the “% inhibition” value is, setting by setting: (inhibitor 1.35 10^−4 mol/l) 97%; (inhibitor 1.35 10^−6 mol/l) 0%.
The like results for `O=S(=O)(NS(=O)(=O)C(F)(F)C(F)(F)C(F)(F)C(F)(F)C(F)(F)C(F)(F)F)C(F)(F)C(F)(F)C(F)(F)C(F)(F)C(F)(F)C(F)(F)F` [(C6F13SO2)2NH, bis(1,1,2,2,3,3,4,4,5,5,6,6,6)tridecafluoro-n-hexylsulfinimide] were, in that order, 85% and 0%.
`[NH-]S(=O)(=O)C(F)(F)C(F)(F)C(F)(F)C(F)(F)C(F)(F)C(F)(F)C(F)(F)C(F)(F)F.[Na+]` [C8F17SO2NH^−+Na, sodium 1,1,2,2,3,3,4,4,5,5,6,6,7,7,8,8,8-heptadecafluoro-n-octylsulfamide anion]: the “inhibition with respect to carboanhydrase, in words” value is “very considerable inhibition”. In addition, where the note is “inhibitor 1.35 10^−6 mol/l”, the “% inhibition” value is on record as 94%. Further, the “% inhibition” value (inhibitor 1.35 10^−7 mol/l) is listed as 40%. Besides, the “% inhibition” value (inhibitor 1.35 10^−8 mol/l) is 17%.
The corresponding values for `NS(=O)(=O)C(F)(F)C(F)(F)C(F)(F)C(F)(F)S(N)(=O)=O` [(C2F4SO2NH2)2, perfluorobutane-1,4-disulfamide] are “very considerable inhibition”, 78%, 6% and 1%.
As for `O=S(=O)(NS(=O)(=O)C(F)(F)C(F)(F)C(F)(F)C(F)(F)C(F)(F)C(F)(F)F)C(F)(F)C(F)(F)C(F)(F)C(F)(F)F` [(C6F13SO2)NH(C4F9SO2)], the “% inhibition” value reads like this: (inhibitor 1.35 10^−4 mol/l) 87%; (inhibitor 1.35 10^−6 mol/l) 0%.
Turning to `NS(=O)(=O)CCC(F)(F)C(F)(F)C(F)(F)C(F)(F)C(F)(F)C(F)(F)C(F)(F)C(F)(F)F` [C8F17(CH2)2SO2NH2], under “inhibitor 1.35 10^−6 mol/l”, the “% inhibition” value is 36%.
As for `O=S(=O)(NS(=O)(=O)C(F)(F)C(F)(F)C(F)(F)C(F)(F)F)C(F)(F)C(F)(F)C(F)(F)C(F)(F)F` [(C4F9SO2)2NH], the “% inhibition” value was found to be 65% (inhibitor 1.35 10^−4 mol/l) and 0% (inhibitor 1.35 10^−6 mol/l).
Consider `NS(=O)(=O)C(F)(F)C(F)(F)C(F)(F)C(F)(F)C(F)(F)C(F)(F)C(F)(F)F` [Example C7F15SO2NH2], for which the “% inhibition” value by setting is: (inhibitor 1.35 10^−6 mol/l) 80%; (inhibitor 1.35 10^−7 mol/l) 0%.
For the molecule `O=S(=O)(NS(=O)(=O)C(F)(F)C(F)(F)C(F)(F)C(F)(F)C(F)(F)C(F)(F)C(F)(F)C(F)(F)F)C(F)(F)C(F)(F)C(F)(F)C(F)(F)C(F)(F)C(F)(F)C(F)(F)C(F)(F)F` [(C8F17SO2)2NH], the “% inhibition” value (inhibitor 1.35 10^−4 mol/l) is 89% and the “% inhibition” value (inhibitor 1.35 10^−6 mol/l) is reported as 0%.
The like results for `CCCCCCS(N)(=O)=O` [Example C6H13SO2NH2, n-hexanesulfamide, reference compound] were, in that order, 73% and 0%.
For the molecule `CCCCCCCCS(N)(=O)=O` [Example C8H17SO2NH2, n-octanesulfamide, reference compound], the “% inhibition” value runs as follows: (inhibitor 1.35 10^−4 mol/l) 86%; (inhibitor 1.35 10^−6 mol/l) 5%.
Take `[Li+].[NH-]S(=O)(=O)C(F)(F)C(F)(F)C(F)(F)C(F)(F)C(F)(F)C(F)(F)C(F)(F)C(F)(F)F` [C8F17SO2NH^−+Li]: the “% inhibition” value (inhibitor 1.35 10^−6 mol/l) was 85% and the “% inhibition” value (inhibitor 1.35 10^−7 mol/l) was found to be 3%.
Regarding `NS(=O)(=O)C(F)(F)C(F)(F)C(F)(F)C(F)(F)C(F)(F)C(F)(F)C(F)(F)C(F)(F)F` [Example C8F17SO2NH2, 1,1,2,2,3,3,4,4,5,5,6,6,7,7,8,8,8-heptadecafluoro-octanesulfamide], the “inhibition with respect to carboanhydrase, in words” value is on record as “very considerable inhibition”. The “% inhibition” value (inhibitor 1.35 10^−6 mol/l) is listed as 88%. Also, under “inhibitor 1.35 10^−7 mol/l”, the “% inhibition” value worked out at 7%. Moreover, the “% inhibition” value (inhibitor 1.35 10^−8 mol/l) was determined as 5%.

The values above are taken from patent US20080015255A1, “Pharmaceutical Compositions Based on Fluorinated Sulphamides and Sulphinimides” (CENTRE NATIONAL DE LA RECHERCHE SCIENTIFIQUE(C.N.R.S.), priority 2004, published 2008).
